Experimental data from the kinase profiling compilation of Christmann-Franck et al. (2016).
Where “and” joins values, the source holds several entries; their conditions need not be identical. Equal entries are not always repeated.

How the values were obtained:
Experiment in all cases: radiometric filter-binding kinase assay, Kinase HotSpot
Conditions in all cases: compound 0.5 µM; ATP 10 µM
RPS6KB2 (human) = RPS6KB2 (human) (UniProt Q9UBS0)
PIM1 (human) = PIM1 (human) (UniProt P11309)
RPS6KA1 KD1 KD2 (human) = RPS6KA1 KD1 KD2 (human) (UniProt Q15418)
NEK9 (human) = NEK9 (human) (UniProt Q8TD19)
Chain of NEK9 (human) (Q8TD19 whole entry, looked up): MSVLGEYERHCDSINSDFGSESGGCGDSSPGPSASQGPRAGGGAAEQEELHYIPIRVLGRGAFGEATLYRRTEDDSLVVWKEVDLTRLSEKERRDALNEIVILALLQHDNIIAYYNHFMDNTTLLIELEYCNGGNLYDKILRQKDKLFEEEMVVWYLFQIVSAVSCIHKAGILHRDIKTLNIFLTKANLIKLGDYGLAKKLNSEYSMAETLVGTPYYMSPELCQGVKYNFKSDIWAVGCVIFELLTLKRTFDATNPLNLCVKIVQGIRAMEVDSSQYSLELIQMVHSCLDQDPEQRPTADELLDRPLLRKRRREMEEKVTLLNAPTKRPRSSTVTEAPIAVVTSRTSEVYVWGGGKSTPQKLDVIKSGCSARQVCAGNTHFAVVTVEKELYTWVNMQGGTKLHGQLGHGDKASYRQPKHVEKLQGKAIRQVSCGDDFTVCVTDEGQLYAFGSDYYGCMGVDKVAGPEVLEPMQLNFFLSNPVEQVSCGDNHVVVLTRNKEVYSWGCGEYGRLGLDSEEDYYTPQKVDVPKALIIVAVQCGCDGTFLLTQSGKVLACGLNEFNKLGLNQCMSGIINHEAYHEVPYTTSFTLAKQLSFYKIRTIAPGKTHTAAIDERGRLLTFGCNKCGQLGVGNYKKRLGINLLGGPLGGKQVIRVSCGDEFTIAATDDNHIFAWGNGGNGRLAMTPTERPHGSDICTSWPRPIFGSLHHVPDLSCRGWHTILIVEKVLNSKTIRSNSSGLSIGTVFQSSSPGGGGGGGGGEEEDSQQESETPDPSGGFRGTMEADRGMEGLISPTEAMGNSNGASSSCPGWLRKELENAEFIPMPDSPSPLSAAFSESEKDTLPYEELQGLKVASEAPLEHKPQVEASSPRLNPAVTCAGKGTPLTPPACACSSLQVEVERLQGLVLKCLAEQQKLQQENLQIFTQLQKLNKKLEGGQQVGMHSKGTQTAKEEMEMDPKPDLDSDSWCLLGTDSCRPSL

CAMK2B (human) = CAMK2B (human) (UniProt Q13554)
PAK1 (human) = PAK1 (human) (UniProt Q13153)
DMPK (human) = DMPK (human) (UniProt Q09013)
PRKD3 (human) = PRKD3 (human) (UniProt O94806)
DCLK2 (human) = DCLK2 (human) (UniProt Q8N568)
BLK (human) = BLK (human) (UniProt P51451)
Chain of BLK (human) (P51451 whole entry, looked up): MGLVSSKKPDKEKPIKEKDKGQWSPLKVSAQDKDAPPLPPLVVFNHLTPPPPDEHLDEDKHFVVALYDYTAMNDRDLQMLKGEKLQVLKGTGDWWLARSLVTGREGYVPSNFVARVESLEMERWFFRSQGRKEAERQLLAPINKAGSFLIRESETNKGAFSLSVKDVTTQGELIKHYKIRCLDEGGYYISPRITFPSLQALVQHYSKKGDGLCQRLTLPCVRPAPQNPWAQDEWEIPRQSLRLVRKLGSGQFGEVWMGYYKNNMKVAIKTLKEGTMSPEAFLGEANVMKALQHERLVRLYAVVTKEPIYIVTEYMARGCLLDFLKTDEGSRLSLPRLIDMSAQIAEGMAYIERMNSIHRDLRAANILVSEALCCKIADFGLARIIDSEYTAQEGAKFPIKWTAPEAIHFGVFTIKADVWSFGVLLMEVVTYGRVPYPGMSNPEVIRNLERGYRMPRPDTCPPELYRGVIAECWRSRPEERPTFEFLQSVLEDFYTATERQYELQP

PDGFRA (human) = PDGFRA (human) (UniProt P16234)
MAPK9 (human) = MAPK9 (human) (UniProt P45984)
ZAP70 (human) = ZAP70 (human) (UniProt P43403)
Chain of ZAP70 (human) (P43403 whole entry, looked up): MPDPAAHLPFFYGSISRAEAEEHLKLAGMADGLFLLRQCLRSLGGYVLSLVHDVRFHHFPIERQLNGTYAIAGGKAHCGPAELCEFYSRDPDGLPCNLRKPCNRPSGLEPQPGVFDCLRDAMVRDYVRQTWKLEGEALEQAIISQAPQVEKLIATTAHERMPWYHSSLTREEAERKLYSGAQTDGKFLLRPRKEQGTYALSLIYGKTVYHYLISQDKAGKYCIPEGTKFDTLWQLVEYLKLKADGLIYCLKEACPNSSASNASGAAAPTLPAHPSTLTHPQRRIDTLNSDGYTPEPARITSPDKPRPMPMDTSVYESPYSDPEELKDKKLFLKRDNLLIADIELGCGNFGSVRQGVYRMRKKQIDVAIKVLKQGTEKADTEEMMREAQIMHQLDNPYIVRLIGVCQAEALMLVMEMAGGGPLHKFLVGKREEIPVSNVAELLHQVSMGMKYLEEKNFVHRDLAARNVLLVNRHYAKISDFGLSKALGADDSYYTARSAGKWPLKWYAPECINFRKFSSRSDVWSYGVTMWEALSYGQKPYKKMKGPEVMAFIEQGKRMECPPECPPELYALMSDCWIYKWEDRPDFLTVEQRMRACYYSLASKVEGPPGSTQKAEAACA

CDK4 CCND1 (human) = CDK4 CCND1 (human) (UniProt P24385+P11802)
Chain of CDK4 CCND1 (human) (P11802 whole entry, looked up): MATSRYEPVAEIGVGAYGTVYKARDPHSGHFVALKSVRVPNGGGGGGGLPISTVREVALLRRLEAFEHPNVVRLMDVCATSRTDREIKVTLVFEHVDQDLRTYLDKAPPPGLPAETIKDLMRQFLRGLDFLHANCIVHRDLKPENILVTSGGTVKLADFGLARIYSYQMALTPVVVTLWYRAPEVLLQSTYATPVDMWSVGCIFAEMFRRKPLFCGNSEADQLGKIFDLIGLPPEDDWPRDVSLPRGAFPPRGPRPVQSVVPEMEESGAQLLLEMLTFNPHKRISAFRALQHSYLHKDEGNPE
Chain of CDK4 CCND1 (human) (P24385 whole entry, looked up): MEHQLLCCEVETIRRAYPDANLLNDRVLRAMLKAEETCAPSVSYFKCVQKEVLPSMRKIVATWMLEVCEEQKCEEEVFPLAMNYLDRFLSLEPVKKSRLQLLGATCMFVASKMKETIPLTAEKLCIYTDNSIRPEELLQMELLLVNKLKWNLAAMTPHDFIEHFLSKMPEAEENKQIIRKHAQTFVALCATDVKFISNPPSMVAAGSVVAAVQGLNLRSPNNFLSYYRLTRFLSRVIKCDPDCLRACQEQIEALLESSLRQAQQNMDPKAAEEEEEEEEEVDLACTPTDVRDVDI

FLT1 (human) = FLT1 (human) (UniProt P17948)
LCK (human) = LCK (human) (UniProt P06239)
FER (human) = FER (human) (UniProt P16591)
MAPKAPK3 (human) = MAPKAPK3 (human) (UniProt Q16644)
ROS1 (human) = ROS1 (human) (UniProt P08922)
[1] = target: JAK1 JH1 catalytic (human) (UniProt P23458)
CSNK1G1 (human) = CSNK1G1 (human) (UniProt Q9HCP0)
Chain of CSNK1G1 (human) (Q9HCP0 whole entry, looked up): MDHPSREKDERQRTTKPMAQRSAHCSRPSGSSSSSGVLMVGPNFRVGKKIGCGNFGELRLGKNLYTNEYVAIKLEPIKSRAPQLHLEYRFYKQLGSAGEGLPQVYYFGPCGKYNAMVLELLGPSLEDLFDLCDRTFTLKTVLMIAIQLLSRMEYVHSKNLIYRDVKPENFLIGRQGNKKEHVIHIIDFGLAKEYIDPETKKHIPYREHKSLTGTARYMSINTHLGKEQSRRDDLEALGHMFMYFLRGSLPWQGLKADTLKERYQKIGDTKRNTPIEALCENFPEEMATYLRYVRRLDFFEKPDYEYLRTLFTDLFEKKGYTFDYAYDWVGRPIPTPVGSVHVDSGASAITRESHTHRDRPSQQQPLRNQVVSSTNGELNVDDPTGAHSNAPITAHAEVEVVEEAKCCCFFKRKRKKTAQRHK

PAK2 (human) = PAK2 (human) (UniProt Q13177)
GRK6 (human) = GRK6 (human) (UniProt P43250)
PASK (human) = PASK (human) (UniProt Q96RG2)
LYN (human) = LYN (human) (UniProt P07948)
PLK3 (human) = PLK3 (human) (UniProt Q9H4B4)
IRAK4 (human) = IRAK4 (human) (UniProt Q9NWZ3)
PRKCH (human) = PRKCH (human) (UniProt P24723)
TAOK1 (human) = TAOK1 (human) (UniProt Q7L7X3)
SRPK1 (human) = SRPK1 (human) (UniProt Q96SB4)
TBK1 (human) = TBK1 (human) (UniProt Q9UHD2)
JAK2 JH1 JH2 (human) = JAK2 JH1 JH2 (human) (UniProt O60674)
Chain of JAK2 JH1 JH2 (human) (O60674 whole entry, looked up): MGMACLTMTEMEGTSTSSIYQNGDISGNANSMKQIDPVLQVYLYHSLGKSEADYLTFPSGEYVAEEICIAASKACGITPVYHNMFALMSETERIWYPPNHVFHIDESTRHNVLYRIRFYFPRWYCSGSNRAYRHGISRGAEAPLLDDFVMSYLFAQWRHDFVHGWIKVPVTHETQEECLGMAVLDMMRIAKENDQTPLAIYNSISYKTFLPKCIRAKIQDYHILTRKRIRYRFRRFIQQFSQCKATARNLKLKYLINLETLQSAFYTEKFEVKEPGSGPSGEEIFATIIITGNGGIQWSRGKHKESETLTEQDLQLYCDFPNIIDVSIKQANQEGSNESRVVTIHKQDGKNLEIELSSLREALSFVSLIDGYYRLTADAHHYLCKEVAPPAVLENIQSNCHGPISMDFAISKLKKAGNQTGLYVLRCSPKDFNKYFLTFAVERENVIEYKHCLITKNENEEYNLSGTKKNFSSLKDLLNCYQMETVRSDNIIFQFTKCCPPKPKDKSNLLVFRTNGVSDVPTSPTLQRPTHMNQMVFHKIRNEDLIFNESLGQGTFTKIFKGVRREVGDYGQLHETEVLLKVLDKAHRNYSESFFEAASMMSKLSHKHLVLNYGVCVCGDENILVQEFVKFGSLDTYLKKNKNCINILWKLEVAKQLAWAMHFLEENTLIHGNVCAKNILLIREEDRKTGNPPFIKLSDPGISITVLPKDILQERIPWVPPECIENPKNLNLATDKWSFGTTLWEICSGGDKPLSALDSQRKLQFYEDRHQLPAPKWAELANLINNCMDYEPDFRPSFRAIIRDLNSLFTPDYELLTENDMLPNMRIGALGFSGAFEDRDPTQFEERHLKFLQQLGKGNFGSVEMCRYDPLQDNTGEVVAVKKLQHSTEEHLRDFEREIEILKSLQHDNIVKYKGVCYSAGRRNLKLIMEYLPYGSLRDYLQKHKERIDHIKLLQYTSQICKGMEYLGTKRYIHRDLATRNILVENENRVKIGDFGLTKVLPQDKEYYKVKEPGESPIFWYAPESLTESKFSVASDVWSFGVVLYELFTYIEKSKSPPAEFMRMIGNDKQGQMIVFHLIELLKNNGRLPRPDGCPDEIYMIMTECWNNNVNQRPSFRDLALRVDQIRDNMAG

DAPK1 (human) = DAPK1 (human) (UniProt P53355)
WEE1 (human) = WEE1 (human) (UniProt P30291)
Chain of WEE1 (human) (P30291 whole entry, looked up): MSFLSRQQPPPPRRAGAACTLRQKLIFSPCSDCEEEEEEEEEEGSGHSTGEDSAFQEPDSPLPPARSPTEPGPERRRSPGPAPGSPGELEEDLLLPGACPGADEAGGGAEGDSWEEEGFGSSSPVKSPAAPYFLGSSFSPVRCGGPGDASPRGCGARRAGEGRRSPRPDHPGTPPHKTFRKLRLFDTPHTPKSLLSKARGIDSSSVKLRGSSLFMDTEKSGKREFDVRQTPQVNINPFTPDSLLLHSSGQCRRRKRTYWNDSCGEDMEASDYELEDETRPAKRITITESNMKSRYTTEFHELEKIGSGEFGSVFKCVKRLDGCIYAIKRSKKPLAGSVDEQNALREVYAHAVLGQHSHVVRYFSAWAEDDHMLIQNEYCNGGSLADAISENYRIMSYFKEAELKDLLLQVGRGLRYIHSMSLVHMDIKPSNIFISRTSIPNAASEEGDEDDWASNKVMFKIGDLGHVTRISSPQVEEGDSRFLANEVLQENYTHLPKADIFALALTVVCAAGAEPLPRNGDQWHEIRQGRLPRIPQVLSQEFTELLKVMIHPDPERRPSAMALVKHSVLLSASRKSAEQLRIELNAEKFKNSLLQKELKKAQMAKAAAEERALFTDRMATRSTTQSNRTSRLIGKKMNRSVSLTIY

CAMK4 (human) = CAMK4 (human) (UniProt Q16566)
AKT1 (human) = AKT1 (human) (UniProt P31749)
TNK2 (human) = TNK2 (human) (UniProt Q07912)
CDK1 CCNA2 (human) = CDK1 CCNA2 (human) (UniProt P06493+P20248)
MAPK14 (human) = MAPK14 (human) (UniProt Q16539)
PDPK1 (human) = PDPK1 (human) (UniProt O15530)
HCK (human) = HCK (human) (UniProt P08631)

COc1ccc(COc2ccc(Cc3cnc(N)nc3N)cc2OC)cc1
residual activity (RPS6KB2 (human)): 100% | residual activity (PIM1 (human)): 104% | residual activity (RPS6KA1 KD1 KD2 (human)): 92.7% | residual activity (NEK9 (human)): 93.3% | residual activity (CAMK2B (human)): 100% | residual activity (PAK1 (human)): 93.4% | residual activity (DMPK (human)): 101% | residual activity (PRKD3 (human)): 97.1% | residual activity (DCLK2 (human)): 101% | residual activity (BLK (human)): 98.6% | residual activity (PDGFRA (human)): 99.4% | residual activity (MAPK9 (human)): 106% | residual activity (ZAP70 (human)): 94.3% | residual activity (CDK4 CCND1 (human)): 97.4% | residual activity (FLT1 (human)): 99.7% | residual activity (LCK (human)): 96.3% | residual activity (FER (human)): 93.4% | residual activity (MAPKAPK3 (human)): 96% | residual activity (ROS1 (human)): 99.9% | residual activity [1]: 105% | residual activity (CSNK1G1 (human)): 92.7% | residual activity (PAK2 (human)): 95.3% | residual activity (GRK6 (human)): 99.8% | residual activity (PASK (human)): 103% | residual activity (LYN (human)): 98.1% and 99.9% | residual activity (PLK3 (human)): 95.9% | residual activity (IRAK4 (human)): 110% | residual activity (PRKCH (human)): 88.6% | residual activity (TAOK1 (human)): 110% | residual activity (SRPK1 (human)): 90.4% | residual activity (TBK1 (human)): 103% | residual activity (JAK2 JH1 JH2 (human)): 89.2% | residual activity (DAPK1 (human)): 102% | residual activity (WEE1 (human)): 90.3% | residual activity (CAMK4 (human)): 94.7% | residual activity (AKT1 (human)): 97.4% | residual activity (TNK2 (human)): 105% | residual activity (CDK1 CCNA2 (human)): 98.7% | residual activity (MAPK14 (human)): 106% | residual activity (PDPK1 (human)): 89.4%

CCN(CC)C(=O)c1ccc(Nc2nc(OCC3CCCCC3)c3nc[nH]c3n2)cc1
residual activity (RPS6KB2 (human)): 102% | residual activity (PIM1 (human)): 95.6% | residual activity (RPS6KA1 KD1 KD2 (human)): 57.1% | residual activity (NEK9 (human)): 81.9% | residual activity (CAMK2B (human)): 97.6% | residual activity (PAK1 (human)): 93.8% | residual activity (DMPK (human)): 105% | residual activity (PRKD3 (human)): 66.5% | residual activity (DCLK2 (human)): 97.3% | residual activity (BLK (human)): 60.9% | residual activity (PDGFRA (human)): 66.6% | residual activity (MAPK9 (human)): 60.8% | residual activity (ZAP70 (human)): 94% | residual activity (CDK4 CCND1 (human)): 82% | residual activity (FLT1 (human)): 84% | residual activity (LCK (human)): 39.8% | residual activity (FER (human)): 42% | residual activity (MAPKAPK3 (human)): 103% | residual activity (ROS1 (human)): 69.9% | residual activity [1]: 51.8% | residual activity (CSNK1G1 (human)): 68.5% | residual activity (GRK6 (human)): 99.5% | residual activity (PASK (human)): 103% | residual activity (LYN (human)): 78.2% and 89.7% | residual activity (PLK3 (human)): 98.1% | residual activity (IRAK4 (human)): 92.4% | residual activity (PRKCH (human)): 86.7% | residual activity (TAOK1 (human)): 57.9% | residual activity (SRPK1 (human)): 91.7% | residual activity (TBK1 (human)): 25.4% | residual activity (JAK2 JH1 JH2 (human)): 4.21% | residual activity (DAPK1 (human)): 81.6% | residual activity (WEE1 (human)): 110% | residual activity (CAMK4 (human)): 97.7% | residual activity (AKT1 (human)): 98.8% | residual activity (HCK (human)): 63.1% | residual activity (TNK2 (human)): 21.4% | residual activity (CDK1 CCNA2 (human)): 95.2% | residual activity (MAPK14 (human)): 94.7% | residual activity (PDPK1 (human)): 69.1%

COc1ccc2c(c[n+](C)c3c4cc5c(cc4ccc23)OCO5)c1OC
residual activity (RPS6KB2 (human)): 99.6% | residual activity (PIM1 (human)): 97% | residual activity (RPS6KA1 KD1 KD2 (human)): 104% | residual activity (NEK9 (human)): 97% | residual activity (CAMK2B (human)): 98.9% | residual activity (PAK1 (human)): 98.7% | residual activity (DMPK (human)): 100% | residual activity (PRKD3 (human)): 99.3% | residual activity (DCLK2 (human)): 96% | residual activity (BLK (human)): 98.7% | residual activity (PDGFRA (human)): 101% | residual activity (MAPK9 (human)): 102% | residual activity (ZAP70 (human)): 101% | residual activity (CDK4 CCND1 (human)): 87.5% | residual activity (FLT1 (human)): 88.8% | residual activity (LCK (human)): 89% | residual activity (FER (human)): 89.8% | residual activity (MAPKAPK3 (human)): 83% | residual activity (ROS1 (human)): 119% | residual activity [1]: 88.5% | residual activity (CSNK1G1 (human)): 106% | residual activity (PAK2 (human)): 101% | residual activity (GRK6 (human)): 104% | residual activity (PASK (human)): 91.1% | residual activity (LYN (human)): 95.4% and 100% | residual activity (PLK3 (human)): 100% | residual activity (IRAK4 (human)): 116% | residual activity (PRKCH (human)): 101% | residual activity (TAOK1 (human)): 105% | residual activity (SRPK1 (human)): 95.3% | residual activity (TBK1 (human)): 96.2% | residual activity (JAK2 JH1 JH2 (human)): 102% | residual activity (DAPK1 (human)): 86.7% | residual activity (WEE1 (human)): 108% | residual activity (CAMK4 (human)): 99.9% | residual activity (AKT1 (human)): 97.6% | residual activity (TNK2 (human)): 101% | residual activity (CDK1 CCNA2 (human)): 89.7% | residual activity (MAPK14 (human)): 94.1% | residual activity (PDPK1 (human)): 98.2%

O=C(Nc1cccc(Nc2nccc(Nc3cccc(C(F)(F)F)c3)n2)c1)C1CC1
residual activity (RPS6KB2 (human)): 96% | residual activity (PIM1 (human)): 103% | residual activity (RPS6KA1 KD1 KD2 (human)): 92.8% | residual activity (NEK9 (human)): 102% | residual activity (CAMK2B (human)): 102% | residual activity (PAK1 (human)): 89.5% | residual activity (DMPK (human)): 101% | residual activity (PRKD3 (human)): 91.9% | residual activity (DCLK2 (human)): 97.4% | residual activity (BLK (human)): 99.8% | residual activity (PDGFRA (human)): 89.3% | residual activity (MAPK9 (human)): 98.7% | residual activity (ZAP70 (human)): 126% | residual activity (CDK4 CCND1 (human)): 101% | residual activity (FLT1 (human)): 97% | residual activity (FER (human)): 93% | residual activity (MAPKAPK3 (human)): 93% | residual activity (ROS1 (human)): 65.5% | residual activity [1]: 74% | residual activity (CSNK1G1 (human)): 105% | residual activity (PAK2 (human)): 105% | residual activity (GRK6 (human)): 93.8% | residual activity (PASK (human)): 106% | residual activity (LYN (human)): 91.9% and 99.9% | residual activity (PLK3 (human)): 90.2% | residual activity (IRAK4 (human)): 146% | residual activity (PRKCH (human)): 98.6% | residual activity (TAOK1 (human)): 97.9% | residual activity (SRPK1 (human)): 104% | residual activity (TBK1 (human)): 91% | residual activity (JAK2 JH1 JH2 (human)): 47.7% | residual activity (DAPK1 (human)): 83.5% | residual activity (WEE1 (human)): 95.6% | residual activity (CAMK4 (human)): 97.9% | residual activity (AKT1 (human)): 109% | residual activity (HCK (human)): 102% | residual activity (TNK2 (human)): 66.5% | residual activity (CDK1 CCNA2 (human)): 95.9% | residual activity (MAPK14 (human)): 91.5% | residual activity (PDPK1 (human)): 104%

O=S(=O)(c1cccc2cnccc12)N1CCCNCC1
residual activity (RPS6KB2 (human)): 81.9% | residual activity (PIM1 (human)): 77% | residual activity (RPS6KA1 KD1 KD2 (human)): 89.2% | residual activity (NEK9 (human)): 95.9% | residual activity (CAMK2B (human)): 93.2% | residual activity (PAK1 (human)): 94.6% | residual activity (PRKD3 (human)): 65.8% | residual activity (DCLK2 (human)): 83.9% | residual activity (BLK (human)): 85.3% | residual activity (MAPK9 (human)): 87% | residual activity (ZAP70 (human)): 108% | residual activity (CDK4 CCND1 (human)): 92.2% | residual activity (FLT1 (human)): 90% | residual activity (LCK (human)): 101% | residual activity (FER (human)): 103% | residual activity (MAPKAPK3 (human)): 99.7% | residual activity (ROS1 (human)): 101% | residual activity [1]: 111% | residual activity (CSNK1G1 (human)): 89.6% | residual activity (GRK6 (human)): 95.4% | residual activity (PASK (human)): 97.1% | residual activity (LYN (human)): 102% and 106% | residual activity (PLK3 (human)): 102% | residual activity (IRAK4 (human)): 108% | residual activity (PRKCH (human)): 84% | residual activity (TAOK1 (human)): 123% | residual activity (SRPK1 (human)): 92.6% | residual activity (JAK2 JH1 JH2 (human)): 107% | residual activity (DAPK1 (human)): 79% | residual activity (WEE1 (human)): 99.9% | residual activity (CAMK4 (human)): 92.9% | residual activity (AKT1 (human)): 99.3% | residual activity (HCK (human)): 95.9% | residual activity (TNK2 (human)): 89.4% | residual activity (CDK1 CCNA2 (human)): 98.6% | residual activity (MAPK14 (human)): 104% | residual activity (PDPK1 (human)): 91.3%
